Laboratory results reported in patent US9149475B2, “Protein kinase C inhibitors and uses thereof” (Rigel Pharmaceuticals, Inc., priority 2009, dated 2015).

What follows are compounds tested on Human primary T cells (assay: IL-2 ELISA, human primary T cell, anti-CD3+CD28+ (whole cell assay)). Conditions: Homo sapiens, T-cell, 24 h, human primary T cells stimulated with anti-CD3 + anti-CD28, 24 hours.
Format: cell-based
Procedure: (§1) Human primary T cells were prepared as follows. Whole blood was obtained from a healthy volunteer, mixed 1:1 with PBS, layered on to Ficoll Hypaque (Amersham Pharmacia Biotech, Piscataway, N.J., Catalog #17-1440-03) in 2:1 blood/PBS:ficoll ratio and centrifuged for 30 minutes at 4° C. at 1750 rpm. The cells at the serum:ficoll interface were recovered and washed twice with 5 volumes of PBS. These freshly isolated human peripheral blood mononuclear cells were cultured in Yssel's medium containing 40 U/mL IL2 in a flask pre-coated with 1 μg/mL αCD3 and 5 μg/mL αCD28 (Anti-Human CD3, BD Pharmingen Catalog #555336, Anti-Human CD28, Beckman Coulter Catalog #IM1376). The cells were stimulated for 3-4 days, then transferred to a fresh flask and maintained in RPMI (RPMI-1640 with L-Glutamine; Mediatech, Inc., Herndon Va., cat. #10-040-CM) with 10% FBS and 40 U/mL IL-2. The primary T-cells were then washed twice with PBS to remove the IL-2.
Human primary T cells (100,000 cells per well) were pre-incubated with or without test compound in Yssel's medium for 1 hr at 37° C. Cells were then stimulated by transferring them to round-bottom 96-well plates pre-coated with 1 μg/ml μCD3 and 5 μg/ml μCD28. For counter assay, cells were instead stimulated by adding 8× stock solutions of PMA and ionomycin in Yssels (for final concentrations of 0.5 ng/ml PMA and 0.1 μM ionomycin, both from Calbiochem). Cells were incubated at 37° C. for 24 hours before 100 μL supernatants were harvested for quantification of IL-2 by ELISA using Human IL-2 Duoset ELISA Kit from R and D Systems, Cat. #DY202E.
as §1, with “Human primary T cell isolation and culture: Human primary” for “Human primary”, “for 30 min at 4°” for “for 30 minutes at 4°”, “at the serum: ficoll interface were” for “at the serum:ficoll interface were”
Primary T cell stimulation and IL2 ELISA: Human primary T cells (100,000 cells per well) were pre-incubated with or without test compound in Yssel's medium for 1 hr at 37° C. Cells were then stimulated by transferring them to round-bottom 96-well plates pre-coated with 1 μg/ml αCD3 and 5 μg/ml αCD28. For counter assay, cells were instead stimulated by adding 8× stock solutions of PMA and ionomycin in Yssels (for final concentrations of 0.5 ng/ml PMA and 0.1 μM ionomycin, both from Calbiochem). Cells were incubated at 37° C. for 24 hours before 100 μL supernatants were harvested for quantification of IL-2 by ELISA using Human IL-2 Duoset ELISA Kit from R and D Systems, Cat. #DY202E.

SMILES	IC50 [nM]
CN1C(C)(C)CC(Nc2nc(Nc3cc(F)cc(OCCCn4cccc4)c3)ncc2F)CC1(C)C [Compound I-36, N2-(3-(3-(1H-pyrrol-1-yl)propoxy)-5-fluorophenyl)-5-fluoro-N4-(1,2,2,6,6-pentamethylpiperidin-4-yl)pyrimidine-2,4-diamine]	500 to 1000
CC1(C)CC(Nc2nc(Nc3cc(F)cc(OCCN4CCCC4=O)c3)ncc2F)CC(C)(C)N1 [Compound I-37, 1-(2-(3-(4-(2,2,6,6-tetramethylpiperidin-4-ylamino)-5-fluoropyrimidin-2-ylamino)-5-fluorophenoxy)ethyl)pyrrolidin-2-one]	> 1000
CN1C(C)(C)CC(Nc2nc(Nc3cc(F)cc(OCCN4CCCC4=O)c3)ncc2F)CC1(C)C [Compound I-38, 1-(2-(3-(4-(1,2,2,6,6-pentamethylpiperidin-4-ylamino)-5-fluoropyrimidin-2-ylamino)-5-fluorophenoxy)ethyl)pyrrolidin-2-one]	500 to 1000
CC1(C)CC(Nc2nc(Nc3cc(F)cc(OCCn4cncn4)c3)ncc2F)CC(C)(C)N1 [Compound I-39, N2-(3-(2-(1H-1,2,4-triazol-1-yl)ethoxy)-5-fluorophenyl)-5-fluoro-N4-(2,2,6,6-tetramethylpiperidin-4-yl)pyrimidine-2,4-diamine]	> 1000
CN1C(C)(C)CC(Nc2nc(Nc3cc(F)cc(OCCn4cncn4)c3)ncc2F)CC1(C)C [Compound I-40, N2-(3-(2-(1H-1,2,4-triazol-1-yl)ethoxy)-5-fluorophenyl)-5-fluoro-N4-(1,2,2,6,6-pentamethylpiperidin-4-yl)pyrimidine-2,4-diamine]	500 to 1000
CN1C(C)(C)CC(Nc2nc(Nc3ccc(OCCCn4cccc4)c(OC(F)F)c3)ncc2F)CC1(C)C [Compound I-41, N2-(4-(3-(1H-pyrrol-1-yl)propoxy)-3-(difluoromethoxy)phenyl)-5-fluoro-N4-(1,2,2,6,6-pentamethylpiperidin-4-yl)pyrimidine-2,4-diamine]	< 250
CC1(C)CC(Nc2nc(Nc3ccc(OCCCn4cccc4)c(OC(F)F)c3)ncc2F)CC(C)(C)N1 [Compound I-42, N2-(4-(3-(1H-pyrrol-1-yl)propoxy)-3-(difluoromethoxy)phenyl)-5-fluoro-N4-(2,2,6,6-tetramethylpiperidin-4-yl)pyrimidine-2,4-diamine]	< 250
CN1C(C)(C)CC(Nc2nc(Nc3ccc(Oc4ccncc4)c(OC(F)F)c3)ncc2F)CC1(C)C [Compound I-43, N2-(3-(difluoromethoxy)-4-(pyridin-4-yloxy)phenyl)-5-fluoro-N4-(1,2,2,6,6-pentamethylpiperidin-4-yl)pyrimidine-2,4-diamine]	> 1000
CN1C(C)(C)CC(Nc2nc(Nc3ccc(Oc4cccnc4)c(OC(F)F)c3)ncc2F)CC1(C)C [Compound I-44, N2-(3-(difluoromethoxy)-4-(pyridin-3-yloxy)phenyl)-5-fluoro-N4-(1,2,2,6,6-pentamethylpiperidin-4-yl)pyrimidine-2,4-diamine]	250 to 500
CC1(C)CC(Nc2nc(Nc3ccc(Oc4cccnc4)c(OC(F)F)c3)ncc2F)CC(C)(C)N1 [Compound I-45, N2-(3-(difluoromethoxy)-4-(pyridin-3-yloxy)phenyl)-5-fluoro-N4-(2,2,6,6-tetramethylpiperidin-4-yl)pyrimidine-2,4-diamine]	250 to 500
CN1C(C)(C)CC(Nc2nc(Nc3ccc(OCCN4CCCC4)c(OC(F)F)c3)ncc2F)CC1(C)C [Compound I-46, N2-(4-(2-(pyrrolidin-1-yl)ethoxy)-3-(difluoromethoxy)phenyl)-5-fluoro-N4-(1,2,2,6,6-pentamethylpiperidin-4-yl)pyrimidine-2,4-diamine]	< 250
CC1(C)CC(Nc2nc(Nc3ccc(OCCCN4CCOCC4)c(OC(F)F)c3)ncc2F)CC(C)(C)N1 [Compound I-47, N2-(4-(3-morpholinopropoxy)-3-(difluoromethoxy)phenyl)-5-fluoro-N4-(2,2,6,6-tetramethylpiperidin-4-yl)pyrimidine-2,4-diamine]	500 to 1000
CN1C(C)(C)CC(Nc2nc(Nc3ccc(OCCCN4CCOCC4)c(OC(F)F)c3)ncc2F)CC1(C)C [Compound I-48, N2-(4-(3-morpholinopropoxy)-3-(difluoromethoxy)phenyl)-5-fluoro-N4-(1,2,2,6,6-pentamethylpiperidin-4-yl)pyrimidine-2,4-diamine]	< 250
CN1C(C)(C)CC(Nc2nc(Nc3cc(OCCCn4cccc4)cc(C(F)(F)F)c3)ncc2F)CC1(C)C [Compound I-49, N2-(3-(3-(1H-pyrrol-1-yl)propoxy)-5-(trifluoromethyl)phenyl)-5-fluoro-N4-(1,2,2,6,6-pentamethylpiperidin-4-yl)pyrimidine-2,4-diamine]	500 to 1000
CC1(C)CC(Nc2nc(Nc3ccc(OCCN4CCNC4=O)c(OC(F)F)c3)ncc2F)CC(C)(C)N1 [Compound I-50, 1-(2-(4-(4-(2,2,6,6-tetramethylpiperidin-4-ylamino)-5-fluoropyrimidin-2-ylamino)-2-(difluoromethoxy)phenoxy)ethyl)imidazolidin-2-one]	> 1000
CN1C(C)(C)CC(Nc2nc(Nc3ccc(OCCN4CCNC4=O)c(OC(F)F)c3)ncc2F)CC1(C)C [Compound I-51, 1-(2-(4-(4-(1,2,2,6,6-pentamethylpiperidin-4-ylamino)-5-fluoropyrimidin-2-ylamino)-2-(difluoromethoxy)phenoxy)ethyl)imidazolidin-2-one]	500 to 1000
CN1C(C)(C)CC(Nc2nc(Nc3ccc(Oc4cccnc4)c(OC(F)F)c3)ncc2C#N)CC1(C)C [Compound I-52, 4-(1,2,2,6,6-pentamethylpiperidin-4-ylamino)-2-(3-(difluoromethoxy)-4-(pyridin-3-yloxy)phenylamino)pyrimidine-5-carbonitrile]	< 250
CN1C(C)(C)CC(Nc2nc(Nc3ccc(Oc4ccncc4)c(OC(F)F)c3)ncc2C#N)CC1(C)C [Compound I-53, 4-(1,2,2,6,6-pentamethylpiperidin-4-ylamino)-2-(3-(difluoromethoxy)-4-(pyridin-4-yloxy)phenylamino)pyrimidine-5-carbonitrile]	> 1000
CN1C(C)(C)CC(Nc2nc(Nc3ccc(OCCn4cncn4)c(OC(F)F)c3)ncc2C#N)CC1(C)C [Compound I-54, 4-(1,2,2,6,6-pentamethylpiperidin-4-ylamino)-2-(4-(2-(1H-1,2,4-triazol-1-yl)ethoxy)-3-(difluoromethoxy)phenylamino)pyrimidine-5-carbonitrile]	500 to 1000
CN1C(C)(C)CC(Nc2nc(Nc3ccc(OCCn4ccnn4)c(OC(F)F)c3)ncc2C#N)CC1(C)C [Compound I-55, 4-(1,2,2,6,6-pentamethylpiperidin-4-ylamino)-2-(4-(2-(1H-1,2,3-triazol-1-yl)ethoxy)-3-(difluoromethoxy)phenylamino)pyrimidine-5-carbonitrile]	250 to 500
CN1C(C)(C)CC(Nc2nc(Nc3ccc(OCCN4CCCC4=O)c(C(F)(F)F)c3)ncc2F)CC1(C)C [Compound I-56, 1-(2-(4-(4-(1,2,2,6,6-pentamethylpiperidin-4-ylamino)-5-fluoropyrimidin-2-ylamino)-2-(trifluoromethyl)phenoxy)ethyl)pyrrolidin-2-one]	500 to 1000
CC1(C)CC(Nc2nc(Nc3ccc(OCCN4CCCC4=O)c(C(F)(F)F)c3)ncc2F)CC(C)(C)N1 [Compound I-57, 1-(2-(4-(4-(2,2,6,6-tetramethylpiperidin-4-ylamino)-5-fluoropyrimidin-2-ylamino)-2-(trifluoromethyl)phenoxy)ethyl)pyrrolidin-2-one]	> 1000
CC1(C)CC(Nc2nc(Nc3ccc(Oc4ccncc4)c(OC(F)F)c3)ncc2C#N)CC(C)(C)N1 [Compound I-58, 4-(2,2,6,6-tetramethylpiperidin-4-ylamino)-2-(3-(difluoromethoxy)-4-(pyridin-4-yloxy)phenylamino)pyrimidine-5-carbonitrile]	500 to 1000
